For `CCCCCCCCCCCC(=O)NCCCN(C)C` [D, dodecylamidopropyl dimethylamine], the “stability at high temperature” value was “not stable”.

From US20200010756A1, “SURFACTANT FOR ENHANCED OIL RECOVERY” (Total S.A., priority 2017, published 2020)
